Source: ChEMBL document CHEMBL3046407, “Toxicity of monoterpenes against larvae and adults of Colorado potato beetle, Leptinotarsa decemlineata Say (Coleoptera: Chrysomelidae)” (2007)

Columns and labels:
Format in all cases: functional
[1] = system: Leptinotarsa decemlineata; experiment: Insecticidal activity against third-instar larval stage of Leptinotarsa decemlineata infested potato leaves assessed as mortality at 10 ul after 24 hr relative to control
[2] = system: Leptinotarsa decemlineata; experiment: Insecticidal activity against adult Leptinotarsa decemlineata infested potato leaves assessed as mortality at 20 ul after 96 hr relative to control
[3] = system: Leptinotarsa decemlineata; experiment: Insecticidal activity against first-instar larval stage of Leptinotarsa decemlineata infested potato leaves assessed as mortality at 20 ul after 96 hr relative to control
[4] = system: Leptinotarsa decemlineata; experiment: Insecticidal activity against third-instar larval stage of Leptinotarsa decemlineata infested potato leaves assessed as mortality at 10 ul after 48 hr (reference value: 3.3 +/- 3.3%)
[5] = system: Leptinotarsa decemlineata; experiment: Insecticidal activity against second-instar larval stage of Leptinotarsa decemlineata infested potato leaves assessed as mortality at 20 ul after 96 hr (reference value: 3.3 +/- 3.3%)
[6] = system: Leptinotarsa decemlineata; experiment: Insecticidal activity against adult Leptinotarsa decemlineata infested potato leaves assessed as mortality at 20 ul after 48 hr relative to control
[7] = system: Leptinotarsa decemlineata; experiment: Insecticidal activity against first-instar larval stage of Leptinotarsa decemlineata infested potato leaves assessed as mortality at 20 ul after 48 hr relative to control
[8] = system: Leptinotarsa decemlineata; experiment: Insecticidal activity against third-instar larval stage of Leptinotarsa decemlineata infested potato leaves assessed as mortality at 20 ul after 48 hr (reference value: 3.3 +/- 3.3%)
[9] = system: Leptinotarsa decemlineata; experiment: Insecticidal activity against first-instar larval stage of Leptinotarsa decemlineata infested potato leaves assessed as mortality at 10 ul after 24 hr relative to control
[10] = system: Leptinotarsa decemlineata; experiment: Insecticidal activity against third-instar larval stage of Leptinotarsa decemlineata infested potato leaves assessed as mortality at 10 ul after 96 hr (reference value: 3.3 +/- 3.3%)
[11] = system: Leptinotarsa decemlineata; experiment: Insecticidal activity against third-instar larval stage of Leptinotarsa decemlineata infested potato leaves assessed as mortality at 20 ul after 96 hr (reference value: 3.3 +/- 3.3%)
[12] = system: Leptinotarsa decemlineata; experiment: Insecticidal activity against first-instar larval stage of Leptinotarsa decemlineata infested potato leaves assessed as mortality at 10 ul after 96 hr relative to control
[13] = system: Leptinotarsa decemlineata; experiment: Insecticidal activity against second-instar larval stage of Leptinotarsa decemlineata infested potato leaves assessed as mortality at 10 ul after 24 hr (reference value: 3.3 +/- 3.3%)
[14] = system: Leptinotarsa decemlineata; experiment: Insecticidal activity against second-instar larval stage of Leptinotarsa decemlineata infested potato leaves assessed as mortality at 10 ul after 12 hr relative to control
[15] = system: Leptinotarsa decemlineata; experiment: Insecticidal activity against third-instar larval stage of Leptinotarsa decemlineata infested potato leaves assessed as mortality at 20 ul after 12 hr relative to control
[16] = system: Leptinotarsa decemlineata; experiment: Insecticidal activity against third-instar larval stage of Leptinotarsa decemlineata infested potato leaves assessed as mortality at 10 ul after 12 hr relative to control
[17] = system: Leptinotarsa decemlineata; experiment: Insecticidal activity against first-instar larval stage of Leptinotarsa decemlineata infested potato leaves assessed as mortality at 10 ul after 12 hr relative to control
[18] = system: Leptinotarsa decemlineata; experiment: Insecticidal activity against adult Leptinotarsa decemlineata infested potato leaves assessed as mortality at 10 ul after 96 hr relative to control
[19] = system: Leptinotarsa decemlineata; experiment: Insecticidal activity against second-instar larval stage of Leptinotarsa decemlineata infested potato leaves assessed as mortality at 20 ul after 48 hr (reference value: 3.3 +/- 3.3%)
[20] = system: Leptinotarsa decemlineata; experiment: Insecticidal activity against second-instar larval stage of Leptinotarsa decemlineata infested potato leaves assessed as mortality at 10 ul after 48 hr (reference value: 3.3 +/- 3.3%)
[21] = system: Leptinotarsa decemlineata; experiment: Insecticidal activity against first-instar larval stage of Leptinotarsa decemlineata infested potato leaves assessed as mortality at 20 ul after 24 hr relative to control
[22] = system: Leptinotarsa decemlineata; experiment: Insecticidal activity against adult Leptinotarsa decemlineata infested potato leaves assessed as mortality at 10 ul after 12 hr relative to control
[23] = system: Leptinotarsa decemlineata; experiment: Insecticidal activity against adult Leptinotarsa decemlineata infested potato leaves assessed as mortality at 20 ul after 24 hr relative to control
[24] = system: Leptinotarsa decemlineata; experiment: Insecticidal activity against adult Leptinotarsa decemlineata infested potato leaves assessed as mortality at 10 ul after 24 hr relative to control
[25] = system: Leptinotarsa decemlineata; experiment: Insecticidal activity against adult Leptinotarsa decemlineata infested potato leaves assessed as mortality at 20 ul after 12 hr relative to control
[26] = system: Leptinotarsa decemlineata; experiment: Insecticidal activity against second-instar larval stage of Leptinotarsa decemlineata infested potato leaves assessed as mortality at 10 ul after 96 hr (reference value: 3.3 +/- 3.3%)
[27] = system: Leptinotarsa decemlineata; experiment: Insecticidal activity against second-instar larval stage of Leptinotarsa decemlineata infested potato leaves assessed as mortality at 20 ul after 24 hr (reference value: 3.3 +/- 3.3%)
[28] = system: Leptinotarsa decemlineata; experiment: Insecticidal activity against third-instar larval stage of Leptinotarsa decemlineata infested potato leaves assessed as mortality at 20 ul after 24 hr relative to control
[29] = system: Leptinotarsa decemlineata; experiment: Insecticidal activity against adult Leptinotarsa decemlineata infested potato leaves assessed as mortality at 10 ul after 48 hr relative to control
[30] = system: Leptinotarsa decemlineata; experiment: Insecticidal activity against first-instar larval stage of Leptinotarsa decemlineata infested potato leaves assessed as mortality at 20 ul after 12 hr relative to control
[31] = system: Leptinotarsa decemlineata; experiment: Insecticidal activity against second-instar larval stage of Leptinotarsa decemlineata infested potato leaves assessed as mortality at 20 ul after 12 hr relative to control
[32] = system: Leptinotarsa decemlineata; experiment: Insecticidal activity against first-instar larval stage of Leptinotarsa decemlineata infested potato leaves assessed as mortality at 10 ul after 48 hr relative to control

Compound	mortality [1]	mortality [2]	mortality [3]	mortality [4]	mortality [5]	mortality [6]	mortality [7]	mortality [8]	mortality [9]	mortality [10]	mortality [11]	mortality [12]	mortality [13]	mortality [14]	mortality [15]	mortality [16]	mortality [17]	mortality [18]	mortality [19]	mortality [20]	also measured
CC(C)=CCCC(C)CCO (stereo not drawn) [CITRONELLOL]	20%	0%	26.7%	23.3%	26.7%	0%	16.7%	6.7%	40%	26.7%	16.7%	50%	40%	6.7%	3.3%	20%	6.7%	13.3%	23.3%	46.7%	mortality [21]: 3.3%; mortality [22]: 13.3%; mortality [23]: 0%; mortality [24]: 13.3%; mortality [25]: 0%; mortality [26]: 50%; mortality [27]: 20%; mortality [28]: 3.3%; mortality [29]: 13.3%; mortality [30]: 0%; mortality [31]: 16.7%; mortality [32]: 46.7%
CC(=O)OC/C=C(/C)CCC=C(C)C [NERYL ACETATE]	0%	30%	10%	6.7%	6.7%	13.3%	10%	33.3%	0%	10%	43.3%	0%	0%	0%	23.3%	0%	0%	70%	3.3%	0%	mortality [21]: 10%; mortality [22]: 0%; mortality [23]: 10%; mortality [24]: 20%; mortality [25]: 3.3%; mortality [26]: 0%; mortality [27]: 3.3%; mortality [28]: 23.3%; mortality [29]: 26.7%; mortality [30]: 6.7%; mortality [31]: 3.3%; mortality [32]: 0%
C/C=C(C)/C=C/C=C(C)C [ALLO-OCIMENE]	0%	23.3%	56.7%	0%	60%	20%	46.7%	23.3%	33.3%	0%	26.7%	56.7%	40%	23.3%	23.3%	0%	13.3%	3.3%	53.3%	50%	mortality [21]: 33.3%; mortality [22]: 3.3%; mortality [23]: 20%; mortality [24]: 3.3%; mortality [25]: 3.3%; mortality [26]: 66.7%; mortality [27]: 43.3%; mortality [28]: 23.3%; mortality [29]: 3.3%; mortality [30]: 16.7%; mortality [31]: 30%; mortality [32]: 46.7%
C=C1CCC2CC1C2(C)C (stereo not drawn) [BETA-PINENE]	83.3%	100%	100%	100%	86.7%	100%	100%	100%	66.7%	100%	100%	100%	76.7%	56.7%	100%	80%	43.3%	100%	80%	90%	mortality [21]: 100%; mortality [22]: 100%; mortality [23]: 96.7%; mortality [24]: 100%; mortality [25]: 80%; mortality [26]: 100%; mortality [27]: 70%; mortality [28]: 100%; mortality [29]: 100%; mortality [30]: 66.7%; mortality [31]: 20%; mortality [32]: 96.7%
